Experimental data from paper PMC10810823, “Generation of a new therapeutic D-peptide that induces the differentiation of acute myeloid leukemia cells through A TLR-2 signaling pathway” (Cell Death Discovery, 2024).
Where a SMILES comes first, the peptide text is derived from it. Where no end group is shown, it is not given here. [ ]: non-standard residue; d: D form.

Legend:
[1] = tested on: NOD/SCID mice; assay: In vivo toxicity at 10-fold treatment dose (H&E of major organs, glucose and serum biochemical indices); settings: 200 mg/kg i.v. every 3 days, 30 days, n = 3 per group
Method: Based on the above in vitro findings, we next tested whether the peptides could suppress the growth of leukemia cells in vivo. To this end, NOD/SCID mice were subcutaneously inoculated with THP-1 cells. L-pep-P6, D-pep-P6, or pep-NC was injected intravenously into NOD/SCID mice (n = 3 per group) at a 10-fold treatment dose (200 mg/kg) every 3 days. We first examined the toxicity of these peptides in vivo. After 30 days of indicated treatments, the major organs, including the heart, kidney, spleen, liver, and lung, were isolated and stained with hematoxylin and eosin. No histological changes in major organs were detectable in the peptide-treated groups when compared with the untreated group (Fig. 4A). We further examined the glucose and serum biochemical indices, such as aspartate aminotransferase (AST), alanine aminotransferase (ALT), creatinine (Cr), and urea.
The mice were categorized into three groups, including the pep-NC group, the D-pep-P6 group, and the […] group (n = 3 per group). These groups received a dosage that was ten times the standard therapeutic amount via the tail vein. Major organs of mice from different treated groups were fixed in 4% formaldehyde for hematoxylin and eosin staining. Following a hydration process, the tissues were stained with Harris hematoxylin for 15 min. […]

[2] = In vivo pharmacokinetic assay; set-up: species or system NOD/SCID mice
Method: In addition, we administered a therapeutic dose of D-pep-P6 (20 mg/kg) via intravenous tail injection into NOD/SCID mice (n = 3 per group). Serum samples were collected at various time points, and the content of D-pep-P6 was quantitatively analyzed using high-performance liquid chromatography coupled with mass spectrometry (Supplemental Fig. 3).
Female NOD/SCID mice weighing between 18 and 20 g were utilized for the pharmacokinetic analysis of D-pep-p6. In the plasma, D-pep-p6 pharmacokinetic profile analysis, groups of mice (n = 3) were administered a single intravenous dose of 20 mg/kg. Blood samples were collected at specified time intervals and subsequently centrifuged at 8000 rpm for 10 min. The resulting plasma was mixed with CH4O in a 3:1 (v/v) ratio and centrifuged once more at 13,000 rpm for 10 min. The supernatant was then analyzed using RP-HPLC to determine parameters such as the maximum plasma concentration (Cmax) and elimination half-life (T1/2).

[3] = tested on: THP-1 cells; assay: Apoptosis by Annexin V/propidium iodide staining, flow cytometry; format: cell-based, human; settings: THP-1, 48 h; Fig. 1C
Method: (§1) The THP-1, U937, and HL-60 cell lines were purchased from ATCC. THP-1, HL-60, and U937 cells were cultured in RPMI 1640 containing 2 mM glutamine, 100 IU/ml penicillin and 100 μg/ml streptomycin (Sigma), supplemented with 10% fetal bovine serum (FBS; Gibco). Cell cultures were maintained at 37 °C, 5% CO2 at 0.8–1 × 10^5 cells/ml. For the initiation of differentiation in THP-1, HL-60, U937, and primary AML cells, the cells were seeded into 12-well tissue culture plates at 1 × 10^6 cells/well. Subsequently, these cells were exposed to the indicated clonal phages (10^10 virions per well), peptides (10 μg/ml), or 100 nM PMA (Sigma-Aldrich, MO, USA).
APC Annexin V Apoptosis Detection Kit with PI (BioLegend, Catalog # 640932, CA, USA) was employed to evaluate cell apoptosis. Target cells were washed twice with cold BioLegend’s Cell Staining Buffer, then suspended in Annexin V Binding Buffer at a concentration of 0.25–1.0 × 10^7 cells/ml. To 100 µL of the cell suspension, 5 µL of APC Annexin V and 10 µL of Propidium Iodide Solution (PI) were added. The suspension was gently vortexed and incubated in the dark for 15 minutes at room temperature. Finally, 400 µL of Annexin V Binding Buffer was added to each tube, and the samples were analyzed by flow cytometry. […]

[4] = tested on: THP-1 cells; assay: Proliferation by Ki-67 staining, FACS; format: cell-based, human; settings: THP-1, 48 h; Fig. 1D
Method: as §1
To assess proliferation, Ki-67 was detected using FACS after 48 h of cell culture exposed to a specific stimulation. Following the manual instruction, the target cells were incubated with 70% cold ethanol at −20 °C for 1 h, washed, and then suspended at a concentration of 1.0 × 10^7/ml in BioLegend Cell Staining Buffer. Subsequently, 100 µl cell suspension was incubated with the 5 µl Ki-67 antibody for flow cytometric analysis.

[5] = tested on: THP-1 cells; assay: Differentiation: cell surface CD11b and CD14 by FACS; format: cell-based, human; settings: THP-1, 48 h; ***P < 0.001; 6 independent experiments
Method: as §1
Differentiation status was also assessed by morphological observation of the cells and by FACS detection of cell surface CD11b and CD14 expression (Table 3). FcR Blocking Reagent (Miltenyi Biotec) was employed to prevent undesired antibody binding and enhance the staining specificity of cell surface antigens.

[6] = tested on: THP-1 cells; assay: Cell differentiation induction: ratio of adherent cells; format: cell-based, human; settings: clonal phages P1, P2, P6, P9 enriched in Round 3; Fig. 1G
Method: as §1
Cells were cultured according to the method described above. As the adherent cell numbers reached a peak at 48 h and declined after 72 h, we chose 48 h as the incubation time in the following experiments. Following the incubation period, cells within each were washed 3 times with PBS. Cells were considered to be adherent if they resisted the vigorous shake of the culture flask and washing by pipetting with a normal growth medium. To assess the ratio of adherent cells, an equal amount of FITC beads (BioLegend, Catalog # 424601, CA, USA) was separately introduced to both suspended and adherent cells. Subsequently, the proportions of FITC beads were measured using FACS. […]

In the case of QFPGFGTELPSS [L-pep-P6], the “signs of toxicity / overall toxicity” value [1] is reported as “low toxicity”.

In the case of `CC(C)C[C@@H](NC(=O)[C@@H](CCC(=O)O)NC(=O)[C@H](NC(=O)CNC(=O)[C@@H](Cc1ccccc1)NC(=O)CNC(=O)[C@H]1CCCN1C(=O)[C@@H](Cc1ccccc1)NC(=O)[C@H](N)CCC(N)=O)[C@H](C)O)C(=O)N1CCC[C@@H]1C(=O)N[C@H](CO)C(=O)N[C@H](CO)C(=O)O` [D-pep-P6] (H-[dQ][dF][dP]G[dF]G[dT][dE][dL][dP][dS][dS]-OH), the “signs of toxicity / overall toxicity” value [1] is reported as “low toxicity”, the “resistance to proteolysis / stability in vivo” value ([2]; NOD/SCID mice, i.v. 20 mg/kg, from concentration-time curve) is reported as “remarkable resistance to proteolysis” and the Cmax ([2]; mouse, iv, female NOD/SCID mice, single i.v. 20 mg/kg, n = 3 per time point, plasma (serum), RP-HPLC (HPLC coupled with mass spectrometry), read-out: maximum concentration (Cmax)) is reported as 13200 ng/mL.

In the case of `CCCCCCCCCCCCCC(=O)O[C@@H]1[C@@H](C)[C@@]2(O)[C@@H](C=C(CO)C[C@]3(O)C(=O)C(C)=C[C@@H]23)[C@@H]2C(C)(C)[C@]12OC(C)=O` [PMA, phorbol 12-myristate 13-acetate], the “proportions of apoptotic and necrotic cells compared to the unstimulated group” value [3] is reported as “slight increase” and the “proliferation (Ki-67 expression) compared to negative control” value [4] is reported as “significant reduction in proliferation”.

In the case of “QFPGFGTELPSS [P6, monoclonal phage from Ph.D.-12 library displaying …]”, the “MFI of CD11b expression induced by P6 relative to that induced by PMA” value [5] is reported as 1.5 fold, the “MFI of CD14 expression induced by P6 relative to that induced by PMA” value [5] is reported as 1.3 fold and the “capability for inducing THP-1 cell differentiation (percentage of adherent cells) among clonal phages” value [6] is reported as “greatest capability for inducing THP-1 cell differentiation”.
